Experimental data taken from patent US7972390B2, “Methods for controlling crystal growth, crystallization, structures and phases in materials and systems” (GR Intellectual Reserve, LLC, priority 2003, dated 2011).

How the values were obtained:
[1] = Example 8d: phenyl salicylate solubility in neon-lamp conditioned vs unconditioned acetone at room temperature; assay type: physicochemical; conditions: equilibrated about 20 hours
Method: Acetone (about 1 ml) was pipetted into small glass test tubes and stoppers placed in the tube. […] Tubes were conditioned under a neon lamp; (about 8 mW/cm^2) in an otherwise dark room for about 1.5 hours at about 28° C. ambient temperature. Tubes were also placed simultaneously in an incubator at about 28° C. for about 1.5 hours.
Phenyl salicylate (about 3.50 grams) was added to each tube leaving a layer undissolved on the bottom of each tube. The solutions were allowed to equilibrate overnight (about 20 hours). Solution was filtered over the crystals and 0.500 ml pipetted into fresh tubes.
After the acetone evaporated, dry weights of phenyl salicylate per ml dissolved in conditioned and unconditioned acetone were determined.

[2] = Example 8c: sugar solubility in sodium-lamp conditioned vs control water at room temperature; assay type: physicochemical; conditions: for Percent sugar by weight: 23.5° C.
Method: Source, Greeneville Municipal Water supply, Greeneville, Tenn. […] Length 12″.
One beaker “KK” was placed under a sodium lamp 112 for about three hours, as configured in FIG. 97f, while the other Beaker “IL” functioning as the control was placed in an incubator for about three hours at an internal temperature of about 28° C.
Sugar (about 300 grams) was then added to each beaker and stirred.

| Compound | Average amount of phenyl salicylate dissolved ([1]; acetone conditioned under neon lamp about 1.5 hours) [g/mL] | Average amount of phenyl salicylate dissolved ([1]; unconditioned acetone (incubator about 1.5 hours)) [g/mL] | Percent sugar by weight ([2]; Beaker KK: water under Na lamp three hours) [%] | Percent sugar by weight ([2]; Beaker LL: control water 3 hours in incubator) [%] | More sucrose by weight dissolved by conditioned water than by unconditioned control water ([2]; after three hours exposure of the water to the sodium lamp) |
| --- | --- | --- | --- | --- | --- |
| O=C(Oc1ccccc1)c1ccccc1O [phenyl salicylate, Phenyl salicylate] | 0.78 | 0.68 | – | – | – |
| OC[C@H]1O[C@@](CO)(O[C@H]2O[C@H](CO)[C@@H](O)[C@H](O)[C@H]2O)[C@@H](O)[C@@H]1O [sucrose, Sucrose] | – | – | 39.1 | 36.7 | about 2.4% |
